17 compounds from patent US11472803B2, “7-substituted 1-aryl-naphthyridine-3-carboxylic acid amides and use thereof” (Bayer Aktiengesellschaft, priority 2016, dated 2022) can be followed below.

pEC50: −log10 of the molar value.

The test deals with T1, human M2 receptor (Homo sapiens, UniProt P08172).
T1 construct: expressed in transfected cells; host or cells: CHO-DUKX (CHO-DUKX-M2-GIRK)
T1 sequence (P08172 1-466): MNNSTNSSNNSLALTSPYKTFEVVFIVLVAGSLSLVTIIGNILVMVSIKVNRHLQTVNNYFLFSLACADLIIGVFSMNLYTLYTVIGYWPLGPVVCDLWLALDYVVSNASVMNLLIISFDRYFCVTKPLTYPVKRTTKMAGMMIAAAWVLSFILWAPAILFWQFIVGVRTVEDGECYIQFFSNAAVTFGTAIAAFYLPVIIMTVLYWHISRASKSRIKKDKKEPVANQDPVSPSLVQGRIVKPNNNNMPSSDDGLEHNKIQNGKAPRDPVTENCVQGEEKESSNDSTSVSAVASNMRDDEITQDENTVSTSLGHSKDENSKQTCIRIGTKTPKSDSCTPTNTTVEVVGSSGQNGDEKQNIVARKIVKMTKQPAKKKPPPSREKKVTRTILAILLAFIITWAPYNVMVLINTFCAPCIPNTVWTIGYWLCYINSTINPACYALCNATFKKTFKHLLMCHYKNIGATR
Nature of the test: Functional M2-GIRK1/4 activation test: allosteric potency (EC50) and efficiency at EC20 acetylcholine. The class given is cell-based. The conditions noted are these: CHO-DUKX-M2-GIRK cells; for pEC50: voltage-sensitive dye, acetylcholine at EC20, in some cases mean of two or more determinations. The method, boiled down: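 CHO-DUKX cells stably expressing human M2 and GIRK1/4; membrane potential tracked with voltage-sensitive dye at room temperature. Compound added 50 s before acetylcholine at its EC20, then hyperpolarization read 60 s. EC50 (allosteric potency) and efficiency (boost of EC20 ACh effect) from 4-parameter Hill fit.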

Where [1] appears, read: boosting of the acetylcholine effect at EC20 acetylcholine concentration.

`CC(C)[C@H](C)NC(=O)c1cn(-c2c(F)cc(F)cc2F)c2nc(N3C[C@@H](O)[C@@H](O)C3)c(F)cc2c1=O` [Example 100, 7-[(3R,4S)-3,4-Dihydroxypyrrolidin-1-yl]-6-fluoro-N-[(2S)-3-methylbutan-2-yl]-4-oxo-1-(2,4,6-trifluorophenyl)-1,4-dihydro-1,8-naphthyridine-3-carboxamide]: the pEC50 (usually −log10 of the EC50, conventionally taken in molar units) was 7.50. The Emax (in general, the maximal effect, on the per cent scale that the assay sets) under setting [1] is 100%.
On to `COC[C@@H](NC(=O)c1cn(-c2c(F)cc(F)cc2F)c2nc(N3C[C@@H](O)[C@H](O)C3)c(F)cc2c1=O)C(C)C` [Example 17, 7-[(3R,4R)-3,4-dihydroxypyrrolidin-1-yl]-6-fluoro-N-[(2S)-1-methoxy-3-methylbutan-2-yl]-4-oxo-1-(2,4,6-trifluorophenyl)-1,4-dihydro-1,8-naphthyridine-carboxamide], for which the negative logarithm of the EC50 (pEC50) is 7.10. For the same compound, the Emax under setting [1] amounted to 83%.
Take `CCC(C)(C)NC(=O)c1cn(-c2ncc(F)cc2F)c2nc(N3C[C@@H](O)[C@H](O)C3)c(F)cc2c1=O` [Example 75, 1-(3,5-Difluoropyridin-2-yl)-7-[(3R,4R)-3,4-dihydroxypyrrolidin-1-yl]-6-fluoro-N-(2-methyl-butan-2-yl)-4-oxo-1,4-dihydro-1,8-naphthyridine-3-carboxamide]: the pEC50 is 7.06. In addition, the maximal effect (Emax) under setting [1] turned out to be 100%.
For the compound `CC[C@H](NC(=O)c1cn(-c2c(F)cccc2F)c2nc(N3C[C@@H](O)[C@H](O)C3)c(F)cc2c1=O)C(F)(F)F` [Example 3, 1-(2,6-Difluorophenyl)-7-[(3R,4R)-3,4-dihydroxypyrrolidin-1-yl]-6-fluoro-4-oxo-N-[(2S)-1,1,1-trifluorobutan-2-yl]-1,4-dihydro-1,8-naphthyridine-3-carboxamide], the negative-log EC50 (pEC50) was 7.42. This compound yielded an Emax under setting [1] of 97%.
Compound `O=C(N[C@@H](C1CC1)C(F)(F)F)c1cn(-c2c(F)cc(F)cc2F)c2nc(N3C[C@@H](O)[C@@H](O)C3)c(F)cc2c1=O` [Example 101, N-[(1S)-1-Cyclopropyl-2,2,2-trifluoroethyl]-7-[(3R,4S)-3,4-dihydroxypyrrolidin-1-yl]-6-fluoro-4-oxo-1-(2,4,6-trifluorophenyl)-1,4-dihydro-1,8-naphthyridine-3-carboxamide] gave a pEC50 of 7.87. The compound further returned an Emax under setting [1] of 100%.
Consider `CC[C@H](NC(=O)c1cn(-c2c(F)cc(F)cc2F)c2nc(N3CCCC[C@H]3CO)c(F)cc2c1=O)C(F)(F)F` [Example 57, 6-Fluoro-7-[(2S)-2-(hydroxymethyl)piperidin-1-yl]-4-oxo-N-[(2S)-1,1,1-trifluorobutan-2-yl]-1-(2,4,6-trifluorophenyl)-1,4-dihydro-1,8-naphthyridine-3-carboxamide], for which the negative logarithm of the EC50 (pEC50) was 7.11. Also, the maximum response (Emax) under setting [1] was 89%.
The matching figures for `CC(COC(F)(F)F)NC(=O)c1cn(-c2ccc(F)cc2F)c2ncc(Cl)cc2c1=O` (racemic) [Example 135, 6-Chloro-1-(2,4-difluorophenyl)-4-oxo-N-[1-(trifluoromethoxy)propan-2-yl]-1,4-dihydro-1,8-naphthyridine-3-carboxamide]: 5.58 and 75%.
`O=C(NCC(F)(F)F)c1cn(-c2c(F)cc(F)cc2Cl)c2nc(N3C[C@@H](O)[C@H](O)C3)c(F)cc2c1=O` [Example 221, 1-(2-Chloro-4,6-difluorophenyl)-7-[(3R,4R)-3,4-dihydroxypyrrolidin-1-yl]-6-fluoro-4-oxo-N-(2,2,2-trifluoroethyl)-1,4-dihydro-1,8-naphthyridine-3-carboxamide] gave a negative logarithm of the EC50 (pEC50) of 7.51. For the same compound, under setting [1], the maximum response (Emax) was 85%.
`C[C@@H](NC(=O)c1cn(-c2c(F)cc(F)cc2F)c2nc(N3C[C@@H](O)[C@H](O)C3)c(F)cc2c1=O)C(F)(F)F` [Example 219, 7-[(3R,4R)-3,4-dihydroxypyrrolidin-1-yl]-6-fluoro-4-oxo-1-(2,4,6-trifluorophenyl)-N-[(2R)-1,1,1-trifluoropropan-2-yl]-1,4-dihydro-1,8-naphthyridine-3-carboxamide]: the pEC50 is 7.78. Under setting [1], this compound showed a maximum response (Emax) of 91%.
In turn, `O=C(NC(C(F)(F)F)C(F)(F)F)c1cn(-c2c(F)cc(F)cc2F)c2nc(N3CC4(COC4)C3)c(F)cc2c1=O` [Example 196, 6-Fluoro-N-(1,1,1,3,3,3-hexafluoropropan-2-yl)-7-(2-oxa-6-azaspiro[3.3]hept-6-yl)-4-oxo-1-(2,4,6-trifluorophenyl)-1,4-dihydro-1,8-naphthyridine-3-carboxamide] gave a negative-log EC50 (pEC50) of 7.20. This compound also came in with an Emax under setting [1] of 100%.
`CN1CCN(c2nc3c(cc2F)c(=O)c(C(=O)N[C@@H](C2CC2)C(F)(F)F)cn3-c2c(F)cc(F)cc2F)CC1CO` (stereo partly drawn) [Example 179, N-[(1S)-1-Cyclopropyl-2,2,2-trifluoroethyl]-6-fluoro-7-[3-(hydroxymethyl)-4-methylpiperazin-1-yl]-4-oxo-1-(2,4,6-trifluorophenyl)-1,4-dihydro-1,8-naphthyridine-3-carboxamide] gave a pEC50 of 7.57. In addition, the Emax under setting [1] was found to be 100%.
The compound `C[C@H](NC(=O)c1cn(-c2c(F)cc(F)cc2F)c2nc(N3C[C@@H](O)[C@H](O)C3)c(F)cc2c1=O)c1ccccc1` [Example 167, 7-[(3R,4R)-3,4-Dihydroxypyrrolidin-1-yl]-6-fluoro-4-oxo-N-[(1S)-1-phenylethyl]-1-(2,4,6-tri-fluorophenyl)-1,4-dihydro-1,8-naphthyridine-3-carboxamide] showed a negative-log EC50 (pEC50) of 8.13. Under setting [1], this compound registered an Emax of 95%.
`CCC(COC(F)(F)F)NC(=O)c1cn(-c2c(F)cc(F)cc2F)c2nc(N3CC[C@H](O)C3)c(F)cc2c1=O` (single isomer, unassigned) [Example 110] gave a pEC50 of 7.72. Further, the Emax under setting [1] amounted to 100%.
`CCC(NC(=O)c1cn(-c2c(F)cc(F)cc2F)c2nc(N3CC[C@H](O)C3)c(F)cc2c1=O)C(C)C` (single isomer, unassigned) [Example 118] showed a negative-log EC50 (pEC50) of 8.55. The compound also returned an Efficiency under setting [1] of 100%.
The compound `C[C@H](NC(=O)c1cn(-c2c(F)cc(F)cc2Cl)c2nc(N3C[C@@H](O)[C@H](O)C3)c(F)cc2c1=O)C1CC1` [Example 43, 1-(2-chloro-4,6-difluorophenyl)-N-[(1S)-1-cyclopropylethyl]-7-[(3R,4R)-3,4-dihydroxypyrrolidin-1-yl]-6-fluoro-4-oxo-1,4-dihydro-1,8-naphthyridine-3-carboxamide] gave a pEC50 of 8.12. Under setting [1], this compound registered an Emax of 100%.
`CCC(C)(CC)NC(=O)c1cn(-c2c(F)cc(F)cc2F)c2nc(N3C[C@@H](O)[C@@H](O)C3)c(F)cc2c1=O` [Example 78, 7-[(3R,4S)-3,4-Dihydroxypyrrolidin-1-yl]-6-fluoro-N-(3-methylpentan-3-yl)-4-oxo-1-(2,4,6-trifluorophenyl)-1,4-dihydro-1,8-naphthyridine-3-carboxamide]: the pEC50 was 8.55. Under setting [1], the Emax came to 100%.
The compound `O=C(NCc1c(Cl)cccc1Cl)c1cn(-c2c(F)cc(F)cc2F)c2nc(N3C[C@@H](O)[C@H](O)C3)c(F)cc2c1=O` [Example 132, N-(2,6-Dichlorobenzyl)-7-[(3R,4R)-3,4-dihydroxypyrrolidin-1-yl]-6-fluoro-4-oxo-1-(2,4,6-tri-fluorophenyl)-1,4-dihydro-1,8-naphthyridine-3-carboxamide] gave a pEC50 of 8.00. Under setting [1], this compound registered an Emax of 99%.
